Earlier results in patent US12440530B2, “Skin solution with solubilized bakuchiol” (Envy Medical, Inc., priority 2013, dated 2025).

How the values were obtained:
[1] = tested on: facial acne vulgaris; conditions: in vivo

solubility in water | Structure (SMILES) | inflammatory (papules, cysts) and noninflammatory (blackheads) lesions [1] | study subjects with partial or total clearing of acne-related post inflammatory hyperpigmentation (PIH) [1]
very insoluble in water | CC(C)=CCC[C@](C)(O)C1CC=C(C)CC1 (stereo partly shown) [bisabolol] |  | 
very insoluble in water | C=C[C@@](C)(/C=C/c1ccc(O)cc1)CCC=C(C)C [Bakuchiol, bakuchiol] | significant reductions | Forty-five
